Tests used:
CTL clone E8 [1] = type: cell-based, mouse (C57BL/6)
CTL clone 4G3 = type: cell-based, mouse
CTL clone B3 = settings: cited from earlier work
TCR of CTL clone G9a = type: cell-based, mouse (C57BL/6)
CTL clone E8 [2] = type: cell-based, mouse (C57BL/6); remark: listed apart in the source

Substance | inhibition of specific target cell lysis by clone E8 (CTL clone E8 [1]) | inhibition of specific target cell lysis by clone 4G3 (CTL clone 4G3) | antagonism for clone B3 (CTL clone B3) | inhibition of agonist-induced loss of surface TCR on clone G9a (TCR of CTL clone G9a) | cold target inhibition of lysis by clone E8 (CTL clone E8 [2])
SIIG FEK ^* L [O7(N4G)] | comparatively poor inhibitors | most sensitive | potent antagonist | – | –
SIIR FEK ^* L [O7(N4R)] | no effect within the concentration range tested | – | – | had no effect | indistinguishable from RMA cells without added peptide

Reference: article PMC2196313 (The Journal of Experimental Medicine, 1997)
